Source: PubChem BioAssay (NCI)
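Values below derive from 48-hour exposures of cells grown in 96-well plates, with endpoints linearly interpolated between the two concentrations bracketing the appropriate inhibition level. TGI is the concentration that stops growth completely.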

Assays:
Assay in all cases: NCI anticancer screen, dose series, 48 h
786-0 renal = tested on: 786-0 renal
A498 renal = tested on: A498 renal
A549 NSCLC = tested on: A549 NSCLC
ACHN renal = tested on: ACHN renal
CAKI-1 renal = tested on: CAKI-1 renal
CCRF-CEM leukemia = tested on: CCRF-CEM leukemia
COLO 205 colon = tested on: COLO 205 colon
DLD-1 colon = tested on: DLD-1 colon
DMS 114 small cell lung = tested on: DMS 114 small cell lung
DMS 273 small cell lung = tested on: DMS 273 small cell lung
EKVX NSCLC = tested on: EKVX NSCLC
HCC-2998 colon = tested on: HCC-2998 colon
HCT-116 colon = tested on: HCT-116 colon
HCT-15 colon = tested on: HCT-15 colon
HL-60(TB) leukemia = tested on: HL-60(TB) leukemia
HOP-18 NSCLC = tested on: HOP-18 NSCLC
HOP-62 NSCLC = tested on: HOP-62 NSCLC
HOP-92 NSCLC = tested on: HOP-92 NSCLC
HT29 colon = tested on: HT29 colon
IGROV1 ovarian = tested on: IGROV1 ovarian
K-562 leukemia = tested on: K-562 leukemia
KM12 colon = tested on: KM12 colon
KM20L2 colon = tested on: KM20L2 colon
LXFL 529 NSCLC = tested on: LXFL 529 NSCLC
M14 melanoma = tested on: M14 melanoma
M19-MEL melanoma = tested on: M19-MEL melanoma
MALME-3M melanoma = tested on: MALME-3M melanoma
MOLT-4 leukemia = tested on: MOLT-4 leukemia
NCI-H226 lung = tested on: NCI-H226 lung
NCI-H23 lung = tested on: NCI-H23 lung
NCI-H460 lung = tested on: NCI-H460 lung
NCI-H522 lung = tested on: NCI-H522 lung
OVCAR-3 ovarian = tested on: OVCAR-3 ovarian
OVCAR-4 ovarian = tested on: OVCAR-4 ovarian
OVCAR-5 ovarian = tested on: OVCAR-5 ovarian
OVCAR-8 ovarian = tested on: OVCAR-8 ovarian
RPMI-8226 leukemia = tested on: RPMI-8226 leukemia
RXF 393 renal = tested on: RXF 393 renal
RXF-631 renal = tested on: RXF-631 renal
SF-268 CNS = tested on: SF-268 CNS
SF-295 CNS = tested on: SF-295 CNS
SF-539 CNS = tested on: SF-539 CNS
SK-MEL-2 melanoma = tested on: SK-MEL-2 melanoma
SK-MEL-28 melanoma = tested on: SK-MEL-28 melanoma
SK-MEL-5 melanoma = tested on: SK-MEL-5 melanoma
SK-OV-3 ovarian = tested on: SK-OV-3 ovarian
SN12C renal = tested on: SN12C renal
SNB-19 CNS = tested on: SNB-19 CNS
SNB-75 CNS = tested on: SNB-75 CNS
SNB-78 CNS = tested on: SNB-78 CNS
SR leukemia = tested on: SR leukemia
SW-620 colon = tested on: SW-620 colon
TK-10 renal = tested on: TK-10 renal
U251 CNS = tested on: U251 CNS
UACC-257 melanoma = tested on: UACC-257 melanoma
UACC-62 melanoma = tested on: UACC-62 melanoma
UO-31 renal = tested on: UO-31 renal
XF 498 CNS = tested on: XF 498 CNS

CC(=O)CC(N)=O
TGI (786-0 renal): > 100 µM | TGI (A498 renal): > 100 µM | TGI (A549 NSCLC): > 100 µM | TGI (ACHN renal): > 100 µM | TGI (CAKI-1 renal): > 100 µM | TGI (CCRF-CEM leukemia): > 100 µM | TGI (COLO 205 colon): > 100 µM | TGI (DLD-1 colon): > 100 µM | TGI (DMS 114 small cell lung): > 100 µM | TGI (DMS 273 small cell lung): > 100 µM | TGI (EKVX NSCLC): > 100 µM | TGI (HCC-2998 colon): > 100 µM | TGI (HCT-116 colon): > 100 µM | TGI (HCT-15 colon): > 100 µM | TGI (HL-60(TB) leukemia): > 100 µM | TGI (HOP-18 NSCLC): > 100 µM | TGI (HOP-62 NSCLC): > 100 µM | TGI (HOP-92 NSCLC): > 100 µM | TGI (HT29 colon): > 100 µM | TGI (IGROV1 ovarian): > 100 µM | TGI (K-562 leukemia): > 100 µM | TGI (KM12 colon): > 100 µM | TGI (KM20L2 colon): > 100 µM | TGI (LXFL 529 NSCLC): > 100 µM | TGI (M14 melanoma): > 100 µM | TGI (M19-MEL melanoma): > 100 µM | TGI (MALME-3M melanoma): > 100 µM | TGI (MOLT-4 leukemia): > 100 µM | TGI (NCI-H226 lung): > 100 µM | TGI (NCI-H23 lung): > 100 µM | TGI (NCI-H460 lung): > 100 µM | TGI (NCI-H522 lung): > 100 µM | TGI (OVCAR-3 ovarian): > 100 µM | TGI (OVCAR-4 ovarian): > 100 µM | TGI (OVCAR-5 ovarian): > 100 µM | TGI (OVCAR-8 ovarian): > 100 µM | TGI (RPMI-8226 leukemia): > 100 µM | TGI (RXF 393 renal): > 100 µM | TGI (RXF-631 renal): > 100 µM | TGI (SF-268 CNS): > 100 µM | TGI (SF-295 CNS): > 100 µM | TGI (SF-539 CNS): > 100 µM | TGI (SK-MEL-2 melanoma): > 100 µM | TGI (SK-MEL-28 melanoma): > 100 µM | TGI (SK-MEL-5 melanoma): > 100 µM | TGI (SK-OV-3 ovarian): > 100 µM | TGI (SN12C renal): > 100 µM | TGI (SNB-19 CNS): > 100 µM | TGI (SNB-75 CNS): > 100 µM | TGI (SNB-78 CNS): > 100 µM | TGI (SR leukemia): > 100 µM | TGI (SW-620 colon): > 100 µM | TGI (TK-10 renal): > 100 µM | TGI (U251 CNS): > 100 µM | TGI (UACC-257 melanoma): > 100 µM | TGI (UACC-62 melanoma): > 100 µM | TGI (UO-31 renal): > 100 µM | TGI (XF 498 CNS): > 100 µM

COc1ccc(C(=O)C(C(=O)CC(=O)Nc2cccc(C(F)(F)F)c2)c2ccc(OC)cc2)cc1 (centres undefined)
TGI (786-0 renal): > 100 µM | TGI (A498 renal): > 100 µM | TGI (A549 NSCLC): > 100 µM | TGI (ACHN renal): > 100 µM | TGI (CAKI-1 renal): > 100 µM | TGI (CCRF-CEM leukemia): > 100 µM | TGI (COLO 205 colon): > 100 µM | TGI (DLD-1 colon): > 100 µM | TGI (DMS 114 small cell lung): > 100 µM | TGI (DMS 273 small cell lung): > 100 µM | TGI (EKVX NSCLC): > 100 µM | TGI (HCC-2998 colon): > 100 µM | TGI (HCT-116 colon): > 100 µM | TGI (HCT-15 colon): > 100 µM | TGI (HL-60(TB) leukemia): > 100 µM | TGI (HOP-62 NSCLC): > 100 µM | TGI (HOP-92 NSCLC): > 100 µM | TGI (HT29 colon): > 100 µM | TGI (IGROV1 ovarian): > 100 µM | TGI (K-562 leukemia): > 100 µM | TGI (KM12 colon): > 100 µM | TGI (KM20L2 colon): > 100 µM | TGI (LXFL 529 NSCLC): > 100 µM | TGI (M14 melanoma): > 100 µM | TGI (M19-MEL melanoma): > 100 µM | TGI (MALME-3M melanoma): > 100 µM | TGI (MOLT-4 leukemia): > 100 µM | TGI (NCI-H226 lung): > 100 µM | TGI (NCI-H23 lung): > 100 µM | TGI (NCI-H460 lung): > 100 µM | TGI (NCI-H522 lung): > 100 µM | TGI (OVCAR-3 ovarian): > 100 µM | TGI (OVCAR-4 ovarian): > 100 µM | TGI (OVCAR-5 ovarian): > 100 µM | TGI (OVCAR-8 ovarian): > 100 µM | TGI (RPMI-8226 leukemia): > 100 µM | TGI (RXF 393 renal): > 100 µM | TGI (RXF-631 renal): > 100 µM | TGI (SF-268 CNS): > 100 µM | TGI (SF-295 CNS): > 100 µM | TGI (SF-539 CNS): > 100 µM | TGI (SK-MEL-2 melanoma): > 100 µM | TGI (SK-MEL-28 melanoma): > 100 µM | TGI (SK-MEL-5 melanoma): > 100 µM | TGI (SK-OV-3 ovarian): > 100 µM | TGI (SN12C renal): > 100 µM | TGI (SNB-19 CNS): > 100 µM | TGI (SNB-75 CNS): 85.5 µM | TGI (SNB-78 CNS): > 100 µM | TGI (SR leukemia): > 100 µM | TGI (SW-620 colon): > 100 µM | TGI (U251 CNS): > 100 µM | TGI (UACC-257 melanoma): > 100 µM | TGI (UACC-62 melanoma): > 100 µM | TGI (UO-31 renal): > 100 µM | TGI (XF 498 CNS): > 100 µM
